Source: patent US9440952B2, “Compounds inhibiting leucine-rich repeat kinase enzyme activity” (Merck Sharp & Dohme Corp., priority 2013, dated 2016)

What follows are compounds tested against T1, LRRK2(G2019S mutation, GST-LRRK2(amino acids 970-2527)) (Homo sapiens, UniProt Q5S007, G2019S) (assay: LRRK2 Km ATP LanthaScreen Assay). Details: Km ATP LanthaScreen Assay; LRRK2 G2019S; mean IC50 values; read-out: LRRK2 IC50.
T1 construct: GST-LRRK2(amino acids 970-2527); GST (N); purchased Life Technologies Corporation
T1 sequence (Q5S007 970-2527 G2019S): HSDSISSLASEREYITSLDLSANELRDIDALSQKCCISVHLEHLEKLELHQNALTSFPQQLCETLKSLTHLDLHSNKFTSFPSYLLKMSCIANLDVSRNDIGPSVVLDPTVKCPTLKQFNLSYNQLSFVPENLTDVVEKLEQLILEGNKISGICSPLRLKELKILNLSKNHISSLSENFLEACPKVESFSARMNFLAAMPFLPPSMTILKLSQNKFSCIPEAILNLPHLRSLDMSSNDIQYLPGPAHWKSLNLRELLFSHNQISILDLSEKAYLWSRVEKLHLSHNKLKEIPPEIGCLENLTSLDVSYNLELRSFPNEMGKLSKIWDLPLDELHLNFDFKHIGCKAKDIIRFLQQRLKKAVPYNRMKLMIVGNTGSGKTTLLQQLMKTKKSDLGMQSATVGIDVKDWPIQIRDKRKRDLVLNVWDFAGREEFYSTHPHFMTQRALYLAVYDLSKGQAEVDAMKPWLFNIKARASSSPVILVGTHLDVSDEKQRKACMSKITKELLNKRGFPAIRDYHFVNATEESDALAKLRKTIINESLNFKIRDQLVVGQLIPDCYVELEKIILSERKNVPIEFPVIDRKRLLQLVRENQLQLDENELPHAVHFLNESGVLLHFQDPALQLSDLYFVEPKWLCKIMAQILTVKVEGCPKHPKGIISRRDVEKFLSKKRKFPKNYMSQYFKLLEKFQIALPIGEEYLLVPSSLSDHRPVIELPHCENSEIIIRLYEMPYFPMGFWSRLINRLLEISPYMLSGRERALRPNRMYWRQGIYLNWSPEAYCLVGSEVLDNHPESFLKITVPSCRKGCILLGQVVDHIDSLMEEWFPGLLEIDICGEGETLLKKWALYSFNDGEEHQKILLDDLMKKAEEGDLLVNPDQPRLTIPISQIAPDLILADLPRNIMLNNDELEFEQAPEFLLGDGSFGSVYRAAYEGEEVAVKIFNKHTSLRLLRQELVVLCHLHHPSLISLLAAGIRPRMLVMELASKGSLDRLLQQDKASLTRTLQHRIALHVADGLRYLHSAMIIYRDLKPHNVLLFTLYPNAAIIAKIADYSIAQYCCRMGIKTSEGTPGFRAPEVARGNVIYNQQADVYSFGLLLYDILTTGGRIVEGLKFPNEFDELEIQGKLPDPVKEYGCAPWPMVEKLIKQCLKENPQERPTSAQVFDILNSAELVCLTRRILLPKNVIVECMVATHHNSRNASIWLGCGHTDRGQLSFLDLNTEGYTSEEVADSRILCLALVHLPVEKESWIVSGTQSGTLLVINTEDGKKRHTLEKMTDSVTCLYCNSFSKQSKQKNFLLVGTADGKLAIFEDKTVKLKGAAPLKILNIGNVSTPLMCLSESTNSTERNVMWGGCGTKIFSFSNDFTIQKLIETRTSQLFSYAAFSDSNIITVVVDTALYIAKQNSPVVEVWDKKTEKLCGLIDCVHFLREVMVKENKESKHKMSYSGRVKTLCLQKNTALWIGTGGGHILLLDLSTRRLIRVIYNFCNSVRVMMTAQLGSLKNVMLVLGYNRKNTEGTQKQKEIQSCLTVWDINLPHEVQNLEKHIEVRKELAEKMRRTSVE
Assay type: biochemical
Protocol: Unless otherwise noted, all LRRK2 IC50 data presented in tables refers to the LRRK2 Km ATP LanthaScreen™ Assay that is described in the Biological Assay section.
The data presented for the 5 mM and Km ATP LanthaScreen™ Assay represents mean IC50 values based on several test results and may have reasonable. deviations depending on the specific conditions and reagents used. Reagents for the LRRK2 5 mM and Km ATP LanthaScreen™ Assay were purchased from Life Technologies Corporation.
Results are analysed using Assay Data Analyzer.

| Compound | IC50 [nM] |
| --- | --- |
| COC1CCN(c2cc(-c3n[nH]c4ccc(-c5ccnc(O)c5)cc34)ccn2)CC1 [Example 122] | 1.1 |
| CN1CCN(c2cc(-c3n[nH]c4ccc(-c5ccnc(O)c5)cc34)ccn2)CC1 [Example 123] | 2.7 |
| CC(O)c1ccc2[nH]nc(-c3ccnc(N4CCOC(CCO)C4)c3)c2c1 (stereo not shown) [Example 127] | 17 |
| OCCC1CN(c2cc(-c3n[nH]c4ccc(CO)cc34)ccn2)CCO1 (stereo not shown) [Example 128] | 10 |
| CC(CO)Nc1cc(-c2n[nH]c3ccc(OC(C)C)cc23)ccn1 (stereo not shown) [Example 129] | 2120 |
| CC(C)Oc1ccc2[nH]nc(-c3ccnc(NC4Cc5ccccc5C4)c3)c2c1 [Example 130] | 13.3 |
| CC(C)Oc1ccc2[nH]nc(-c3ccnc(N4CCCC(CO)C4)c3)c2c1 (stereo not shown) [Example 131] | 1.5 |
| CC(C)Oc1ccc2[nH]nc(-c3ccnc(NCc4ccccn4)c3)c2c1 [Example 132] | 2.2 |
| CC(C)Oc1ccc2[nH]nc(-c3ccnc(NCCc4ccccn4)c3)c2c1 [Example 133] | 0.8 |
| CC(C)Oc1ccc2[nH]nc(-c3ccnc(NCC4CC4)c3)c2c1 [Example 134] | 2 |
| CC(C)Oc1ccc2[nH]nc(-c3ccnc(NCC4CCCO4)c3)c2c1 (stereo not shown) [Example 135] | 3.2 |
| COCCN(C)c1cc(-c2n[nH]c3ccc(OC(C)C)cc23)ccn1 [Example 136] | 4.9 |
| CC(C)Oc1ccc2[nH]nc(-c3ccnc(NC4CC4)c3)c2c1 [Example 137] | 24.3 |
| COC1CCCN(c2cc(-c3n[nH]c4ccc(OC(C)C)cc34)ccn2)C1 (stereo not shown) [Example 138] | 11.4 |
| CC(C)Oc1ccc2[nH]nc(-c3ccnc(N4CCc5ccccc5C4)c3)c2c1 [Example 139] | 18.1 |
| CC(C)Oc1ccc2[nH]nc(-c3ccnc(NCCO)c3)c2c1 [Example 140] | 7.3 |
| Cc1cc(C(=O)Nc2cc(-c3n[nH]c4ccc(OC(C)C)cc34)ccn2)n(C)n1 [Example 141] | 51.4 |
| CC(C)Oc1ccc2[nH]nc(-c3ccnc(NC(=O)c4ccno4)c3)c2c1 [Example 142] | 21.4 |
| CC(C)Oc1ccc2[nH]nc(-c3ccnc(NC(=O)c4ccc(C#N)cc4)c3)c2c1 [Example 143] | 113 |

| Compound | IC50 [nM] |
| --- | --- |
| CC(C)Oc1ccc2[nH]nc(-c3ccnc(NC(=O)c4ccccn4)c3)c2c1 [Example 144] | 29.2 |
| CC(C)Oc1ccc2[nH]nc(-c3ccnc(NC(=O)c4ccc5c(c4)C(=O)NC5)c3)c2c1 [Example 145] | 52 |
| CC(C)Oc1ccc2[nH]nc(-c3ccnc(NC(=O)c4ccccc4-n4cncn4)c3)c2c1 [Example 146] | 36.8 |
| CC(C)Oc1ccc2[nH]nc(-c3ccnc(NC(=O)c4cnc(C(C)C)nc4)c3)c2c1 [Example 147] | 70.8 |
| CC(C)Oc1ccc2[nH]nc(-c3ccnc(NC(=O)c4ccnc(-n5cnnn5)c4)c3)c2c1 [Example 148] | 23.9 |
| CC(C)CCC(=O)Nc1cc(-c2n[nH]c3ccc(OC(C)C)cc23)ccn1 [Example 149] | 79.6 |
| COCCC(=O)Nc1cc(-c2n[nH]c3ccc(OC(C)C)cc23)ccn1 [Example 150] | 51.7 |
| CC(C)Oc1ccc2[nH]nc(-c3ccnc(NC(=O)C(C)c4ccccc4)c3)c2c1 (stereo not shown) [Example 151] | 51.9 |
| CC(C)Oc1ccc2[nH]nc(-c3ccnc(NC(=O)CC4CC4)c3)c2c1 [Example 152] | 35.8 |
| CC(C)Oc1ccc2[nH]nc(-c3ccnc(NC(=O)C4CC(=O)C4)c3)c2c1 [Example 153] | 29.7 |
| CC(C)Oc1ccc2[nH]nc(-c3ccnc(NC(=O)C(C)C)c3)c2c1 [Example 154] | 39.4 |
| Cc1cc(CC(=O)Nc2cc(-c3n[nH]c4ccc(OC(C)C)cc34)ccn2)on1 [Example 155] | 13.4 |
| CC(C)Oc1ccc2[nH]nc(-c3ccnc(NC(=O)C4CCCC4)c3)c2c1 [Example 156] | 53.1 |
| CC(C)Oc1ccc2[nH]nc(-c3ccnc(NC(=O)Cc4ccsc4)c3)c2c1 [Example 157] | 34.4 |
| CC(C)Oc1ccc2[nH]nc(-c3ccnc(NC(=O)C4CC4c4cncnc4)c3)c2c1 (stereo not shown) [Example 158] | 30.9 |
| COc1ccc(C2CC2C(=O)Nc2cc(-c3n[nH]c4ccc(OC(C)C)cc34)ccn2)cc1 (stereo not shown) [Example 159] | 782 |
| CC(C)Oc1ccc2[nH]nc(-c3ccnc(NC(=O)C4CC45CCCC5)c3)c2c1 (stereo not shown) [Example 160] | 140 |
| Cc1nonc1CC(=O)Nc1cc(-c2n[nH]c3ccc(OC(C)C)cc23)ccn1 [Example 161] | 32 |
| CC(C)Oc1ccc2[nH]nc(-c3ccnc(NC(=O)CCc4cnn(C)c4)c3)c2c1 [Example 162] | 27.2 |

| Compound | IC50 [nM] |
| --- | --- |
| Cc1nc(C)c(CC(=O)Nc2cc(-c3n[nH]c4ccc(OC(C)C)cc34)ccn2)s1 [Example 163] | 34.9 |
| CC(C)Oc1ccc2[nH]nc(-c3ccnc(NC(=O)C4CCOCC4)c3)c2c1 [Example 164] | 27.7 |
| CC(C)Oc1ccc2[nH]nc(-c3ccnc(NC(=O)CC4CCC(=O)N4)c3)c2c1 (stereo not shown) [Example 165] | 23.4 |
| CC(C)Oc1ccc2[nH]nc(-c3ccnc(NC(=O)C4CC(F)(F)C4)c3)c2c1 [Example 166] | 73.5 |
| CC(C)Oc1ccc2[nH]nc(-c3ccnc(NC(=O)C4CCN(c5ccccn5)C4)c3)c2c1 (stereo not shown) [Example 167] | 78 |
| CC(C)Oc1ccc2[nH]nc(-c3ccnc(NC(=O)CC4COCCO4)c3)c2c1 (stereo not shown) [Example 168] | 33.4 |
| CC(C)Oc1ccc2[nH]nc(-c3ccnc(NC(=O)c4cc(F)cc(F)c4)c3)c2c1 [Example 169] | 169 |
| CC(C)Oc1ccc2[nH]nc(-c3ccnc(N4CCCC(O)C4)c3)c2c1 (stereo not shown) [Example 170] | 6.4 |
| CC(C)Oc1ccc2[nH]nc(-c3ccnc(N4CCC(n5ccnc5)C4)c3)c2c1 (stereo not shown) [Example 171] | 3.1 |
| CO[C@H]1CN(c2cc(-c3n[nH]c4ccc(OC(C)C)cc34)ccn2)C[C@@H]1O [Example 172] | 27.1 |
| CC(C)Oc1ccc2[nH]nc(-c3ccnc(N4CCC(n5cccn5)CC4)c3)c2c1 [Example 173] | 4.9 |
| CC(C)Oc1ccc2[nH]nc(-c3ccnc(N4C[C@H](F)[C@@H](F)C4)c3)c2c1 [Example 174] | 6.6 |
| CC(C)Oc1ccc2[nH]nc(-c3ccnc(N4CCC(c5ccncc5)C4)c3)c2c1 (stereo not shown) [Example 175] | 2.2 |
| CC(C)Oc1ccc2[nH]nc(-c3ccnc(N4C[C@@H]5C[C@H]4CO5)c3)c2c1 [Example 176] | 7.1 |
| CO[C@H]1CCN(c2cc(-c3n[nH]c4ccc(OC(C)C)cc34)ccn2)C1 [Example 177] | 5.2 |
| CO[C@@H]1CCN(c2cc(-c3n[nH]c4ccc(OC(C)C)cc34)ccn2)C1 [Example 178] | 5 |
| CC(C)Oc1ccc2[nH]nc(-c3ccnc(N4C5CCCC4CC5)c3)c2c1 [Example 179] | 17.7 |
| CC(C)Oc1ccc2[nH]nc(-c3ccnc(N4CC(n5cnnc5)C4)c3)c2c1 [Example 180] | 10.2 |

Same assay, conditions: Km ATP LanthaScreen; mean IC50 of several tests; read-out: LRRK2 IC50

| Compound | IC50 [nM] |
| --- | --- |
| Oc1ccnc(F)c1-c1ccc2[nH]nc(-c3ccnc(N4CCOCC4)c3)c2c1 [Example 119] | 34 |
| Oc1cc(-c2ccc3[nH]nc(-c4ccnc(N5CCNCC5)c4)c3c2)ccn1 [Example 120] | 3.4 |
| Cc1ccc2[nH]nc(-c3ccnc(N4CCOCC4)c3)c2c1 [Example 124] | 9.6 |
| c1ccc(-c2ccc3c(-c4ccnc(N5CCOCC5)c4)n[nH]c3c2)cc1 [Example 125] | 34 |
| CC(O)c1ccc2[nH]nc(-c3ccnc(N4CCOCC4)c3)c2c1 (stereo not shown) [Example 126] | 9.9 |
